# Reference: ChEMBL document CHEMBL1201862, “PubChem BioAssay data set” (2004)
# The source made the active and inactive calls.
# What was measured:
# [1] = microbe, parasite or virus in culture; assay type: functional; conditions: Mycobacterium tuberculosis
# [2] = HEp-2 cell cytotoxicity, dose response, cytotoxicity control for RSV inhibitor project, HTS (AID 2410); assay type: functional; conditions: human respiratory syncytial virus
# [3] = target: Paired box protein Pax-8 (Homo sapiens, UniProt Q06710); experiment: inhibitors of PAX8-driven TPO luciferase reporter, dose response, RMG-I cells, cherry-pick (AID 687027); assay type: functional, cell-based;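 also: luciferase reporter driven by Pax8 target thyroperoxidase promoter measured by SteadyGlo luminescence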
# Paired box protein Pax-8, sequence (Q06710 whole entry): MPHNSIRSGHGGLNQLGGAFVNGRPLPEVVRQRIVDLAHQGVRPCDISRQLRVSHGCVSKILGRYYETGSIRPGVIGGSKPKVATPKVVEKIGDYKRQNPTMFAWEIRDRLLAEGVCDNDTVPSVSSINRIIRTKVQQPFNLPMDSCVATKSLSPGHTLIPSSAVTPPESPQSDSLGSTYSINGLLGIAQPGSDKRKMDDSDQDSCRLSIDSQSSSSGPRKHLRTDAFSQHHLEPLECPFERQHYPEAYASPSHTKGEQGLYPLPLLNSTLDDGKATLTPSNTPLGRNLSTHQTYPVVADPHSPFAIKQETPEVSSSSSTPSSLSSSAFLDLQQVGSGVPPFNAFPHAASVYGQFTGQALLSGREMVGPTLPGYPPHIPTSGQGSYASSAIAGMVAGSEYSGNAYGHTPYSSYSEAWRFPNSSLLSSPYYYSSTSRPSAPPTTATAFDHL
# [4] = target: Glyceraldehyde-3-phosphate dehydrogenase (Homo sapiens, UniProt P04406)
# Glyceraldehyde-3-phosphate dehydrogenase, sequence (P04406 whole entry): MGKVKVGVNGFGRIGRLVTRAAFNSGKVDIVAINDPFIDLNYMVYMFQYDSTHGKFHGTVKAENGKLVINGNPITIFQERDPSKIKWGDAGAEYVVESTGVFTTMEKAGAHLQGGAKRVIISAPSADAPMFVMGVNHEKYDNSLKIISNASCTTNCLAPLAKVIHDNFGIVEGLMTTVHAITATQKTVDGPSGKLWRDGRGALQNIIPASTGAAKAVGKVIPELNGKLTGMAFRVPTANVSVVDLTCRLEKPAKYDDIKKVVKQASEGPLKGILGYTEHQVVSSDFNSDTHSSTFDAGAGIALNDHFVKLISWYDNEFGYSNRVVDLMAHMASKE
# [5] = growth suppression of beta-catenin-knockout colon cells, dose response, cell-based, HCT116, human colon tumor (AID 1045); assay type: functional;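 also: HCT116 colon tumor cells with beta catenin knocked out; cells exposed to compound for 60 hours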
# [6] = growth suppression of PTEN-null colon cells, dose response, cell-based, HCT116 PTEN knockout (AID 1047); assay type: functional;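 also: HCT116 colon tumor cells with PTEN knocked out; cells exposed to compound for 60 hours before readout; potency for loss of cell viability measured by luminescence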
# [7] = system: SN12K1; experiment: cells; assay type: functional; conditions: Homo sapiens
# [8] = system: P388/ADR; experiment: cells; assay type: functional; conditions: Mus musculus
# [9] = system: P388; experiment: cells; assay type: functional; conditions: Mus musculus
# [10] = target: T1, High affinity choline transporter 1 (Homo sapiens, UniProt Q9GZV3); experiment: CHT inhibitors, dose response, cell-based, 5-point CRC, membrane potential dye (AID 504840); assay type: functional
# T1 sequence (Q9GZV3 whole entry): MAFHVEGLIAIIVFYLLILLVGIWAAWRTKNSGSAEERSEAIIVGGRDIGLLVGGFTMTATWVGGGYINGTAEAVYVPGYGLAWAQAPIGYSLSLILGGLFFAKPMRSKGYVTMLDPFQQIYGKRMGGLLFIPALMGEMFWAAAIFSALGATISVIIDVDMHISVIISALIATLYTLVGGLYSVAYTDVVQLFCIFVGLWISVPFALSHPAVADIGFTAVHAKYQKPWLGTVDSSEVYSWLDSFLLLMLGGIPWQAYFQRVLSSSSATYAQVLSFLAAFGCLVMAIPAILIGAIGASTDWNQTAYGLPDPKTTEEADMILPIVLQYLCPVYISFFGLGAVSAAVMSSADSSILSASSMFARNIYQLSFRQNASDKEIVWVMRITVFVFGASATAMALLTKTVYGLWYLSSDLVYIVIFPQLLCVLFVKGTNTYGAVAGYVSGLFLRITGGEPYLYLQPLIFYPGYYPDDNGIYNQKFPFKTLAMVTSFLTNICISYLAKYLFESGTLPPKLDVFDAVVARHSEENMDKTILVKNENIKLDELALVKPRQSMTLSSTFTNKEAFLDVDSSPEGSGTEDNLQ
# [11] = inhibitors of intracellular T. cruzi replication, confirmation, NIH3T3 host cells, beta-gal luminescence (AID 2044); assay type: functional, cell-based;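 also: intracellular parasites grown in NIH/3T3 mouse fibroblasts as host cells; luminescent beta-galactosidase reporter signal from transgenic T. cruzi replicating inside host cells; inhibitors lower the luminescence signal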
# [12] = cytotoxicity toward NIH3T3 fibroblasts, dose response, counter-screen, cell-based, ATP luminescence, mouse fibroblasts (AID 2010); assay type: functional;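 also: cells exposed to compound for about 90 hours before reading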
# [13] = target: Induced myeloid leukemia cell differentiation protein Mcl-1 (Homo sapiens, UniProt Q07820); assay type: functional
# Induced myeloid leukemia cell differentiation protein Mcl-1, sequence (Q07820 whole entry): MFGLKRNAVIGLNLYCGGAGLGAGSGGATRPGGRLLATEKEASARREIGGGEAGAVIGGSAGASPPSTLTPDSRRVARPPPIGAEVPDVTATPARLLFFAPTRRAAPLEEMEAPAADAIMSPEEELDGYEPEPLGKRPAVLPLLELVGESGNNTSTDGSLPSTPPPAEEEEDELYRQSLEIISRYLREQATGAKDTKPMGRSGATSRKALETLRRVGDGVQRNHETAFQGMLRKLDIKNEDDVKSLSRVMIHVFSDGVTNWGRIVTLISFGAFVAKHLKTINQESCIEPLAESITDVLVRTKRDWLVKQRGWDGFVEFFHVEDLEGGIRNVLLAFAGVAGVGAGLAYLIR
# [14] = NIH-3T3 fibroblast cytotoxicity, dose response, cytotoxicity control, cell-based, fluorescence, Alamar Blue, secondary assay (AID 2327); assay type: functional;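 also: NIH-3T3 mouse fibroblasts cultured with fluconazole at 8 µg/mL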
# [15] = C. albicans growth with fluconazole, confirmation, fluorescence, retest (AID 2467); assay type: functional, cell-based
# [16] = target: T2, Fatty acid synthase (Homo sapiens, UniProt P49327); experiment: FAS thioesterase domain inhibitors, dose response, biochemical, endpoint fluorescence intensity, uHTS hits (AID 624327); assay type: functional;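 also: fluorescence from hydrolysis of an O-methyl fluorescein acyl ester substrate by the enzyme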
# T2 sequence (P49327 whole entry, the tested form may be a part): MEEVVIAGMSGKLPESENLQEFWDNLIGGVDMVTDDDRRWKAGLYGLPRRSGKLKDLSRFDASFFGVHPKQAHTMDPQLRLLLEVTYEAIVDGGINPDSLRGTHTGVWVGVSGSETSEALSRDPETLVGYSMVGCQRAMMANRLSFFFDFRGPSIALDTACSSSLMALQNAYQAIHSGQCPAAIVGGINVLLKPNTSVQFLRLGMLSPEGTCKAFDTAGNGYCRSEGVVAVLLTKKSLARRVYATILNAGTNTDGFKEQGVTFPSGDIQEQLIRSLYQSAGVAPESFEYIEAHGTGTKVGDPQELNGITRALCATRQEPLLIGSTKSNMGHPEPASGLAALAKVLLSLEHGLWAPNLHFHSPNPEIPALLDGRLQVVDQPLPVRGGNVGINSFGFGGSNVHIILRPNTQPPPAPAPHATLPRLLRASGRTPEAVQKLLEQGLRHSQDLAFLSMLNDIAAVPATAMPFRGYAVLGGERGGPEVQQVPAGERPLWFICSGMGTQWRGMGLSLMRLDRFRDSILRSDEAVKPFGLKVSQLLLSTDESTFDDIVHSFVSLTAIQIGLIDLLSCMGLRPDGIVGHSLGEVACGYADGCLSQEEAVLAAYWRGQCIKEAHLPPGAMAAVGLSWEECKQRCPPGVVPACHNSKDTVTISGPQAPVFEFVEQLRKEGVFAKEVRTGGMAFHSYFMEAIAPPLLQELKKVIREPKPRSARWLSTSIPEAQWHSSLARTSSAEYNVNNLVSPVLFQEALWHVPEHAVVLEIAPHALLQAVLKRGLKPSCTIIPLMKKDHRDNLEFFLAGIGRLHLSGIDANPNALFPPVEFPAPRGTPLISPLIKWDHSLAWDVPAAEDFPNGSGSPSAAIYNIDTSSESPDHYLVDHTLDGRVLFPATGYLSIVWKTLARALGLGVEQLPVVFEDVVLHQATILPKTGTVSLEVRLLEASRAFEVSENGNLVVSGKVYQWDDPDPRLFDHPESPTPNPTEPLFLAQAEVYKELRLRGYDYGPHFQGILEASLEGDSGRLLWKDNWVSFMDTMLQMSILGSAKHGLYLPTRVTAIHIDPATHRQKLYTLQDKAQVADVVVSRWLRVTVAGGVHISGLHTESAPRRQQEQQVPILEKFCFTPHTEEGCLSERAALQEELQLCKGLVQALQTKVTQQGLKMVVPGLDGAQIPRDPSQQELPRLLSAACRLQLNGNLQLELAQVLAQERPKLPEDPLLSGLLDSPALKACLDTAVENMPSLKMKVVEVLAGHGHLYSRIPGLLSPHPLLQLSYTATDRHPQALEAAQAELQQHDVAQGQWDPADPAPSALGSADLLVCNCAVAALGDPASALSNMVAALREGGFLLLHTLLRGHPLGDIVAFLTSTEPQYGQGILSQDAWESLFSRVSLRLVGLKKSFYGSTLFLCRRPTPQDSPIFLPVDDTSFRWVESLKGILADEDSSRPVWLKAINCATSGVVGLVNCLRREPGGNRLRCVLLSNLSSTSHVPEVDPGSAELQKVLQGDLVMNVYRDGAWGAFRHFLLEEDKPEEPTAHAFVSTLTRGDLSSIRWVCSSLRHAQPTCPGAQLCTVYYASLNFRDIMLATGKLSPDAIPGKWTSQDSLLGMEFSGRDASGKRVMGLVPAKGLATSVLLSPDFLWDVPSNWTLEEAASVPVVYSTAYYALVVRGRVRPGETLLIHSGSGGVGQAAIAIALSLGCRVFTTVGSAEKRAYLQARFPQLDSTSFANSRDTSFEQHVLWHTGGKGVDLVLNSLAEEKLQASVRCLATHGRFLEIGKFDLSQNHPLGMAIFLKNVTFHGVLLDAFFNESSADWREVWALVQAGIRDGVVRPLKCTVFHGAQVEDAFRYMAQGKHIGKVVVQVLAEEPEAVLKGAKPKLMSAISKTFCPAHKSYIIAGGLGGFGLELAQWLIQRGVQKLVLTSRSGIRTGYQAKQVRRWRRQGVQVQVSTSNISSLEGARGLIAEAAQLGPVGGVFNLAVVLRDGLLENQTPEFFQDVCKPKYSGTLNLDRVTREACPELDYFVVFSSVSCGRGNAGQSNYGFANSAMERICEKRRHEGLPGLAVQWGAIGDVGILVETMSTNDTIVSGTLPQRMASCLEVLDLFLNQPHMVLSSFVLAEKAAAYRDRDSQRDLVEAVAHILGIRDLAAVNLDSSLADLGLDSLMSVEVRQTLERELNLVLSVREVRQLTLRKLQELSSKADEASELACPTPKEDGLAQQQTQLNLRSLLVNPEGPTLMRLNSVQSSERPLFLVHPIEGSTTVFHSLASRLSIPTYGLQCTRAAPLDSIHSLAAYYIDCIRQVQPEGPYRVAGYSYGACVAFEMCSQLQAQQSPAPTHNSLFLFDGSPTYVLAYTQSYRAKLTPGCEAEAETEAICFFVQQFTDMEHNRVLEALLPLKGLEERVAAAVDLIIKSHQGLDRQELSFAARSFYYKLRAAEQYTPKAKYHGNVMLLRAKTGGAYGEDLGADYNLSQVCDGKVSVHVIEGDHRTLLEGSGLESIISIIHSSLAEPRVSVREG
# [17] = target: T2, Fatty acid synthase; experiment: FAS thioesterase domain inhibitors, dose response, biochemical, kinetic fluorescence intensity (AID 624326); assay type: functional;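 also: rate of fluorescence rise from hydrolysis of a fluorogenic O-methyl fluorescein ester substrate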
# [18] = Shn3 3'UTR reporter inhibitors, dose response, cell-based, Clone20 osteoblasts, firefly luciferase, cherry-picked (AID 624132); assay type: functional;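 also: firefly luciferase luminescence from reporter carrying the Shn3 3'UTR in osteoblasts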
# [19] = HepG2 cell cytotoxicity, dose response, cytotoxicity control for Shn3 inhibitor project, CellTiter-Glo, cherry-picked (AID 624134); assay type: functional, cell-based
# [20] = target: FAD-linked sulfhydryl oxidase ALR (Homo sapiens, UniProt P55789); experiment: inhibitors of human ALR sulfhydryl oxidase, dose response, biochemical, H2O2 detection, luminescence, cherry-pick (AID 493248)
# FAD-linked sulfhydryl oxidase ALR, sequence (P55789 whole entry): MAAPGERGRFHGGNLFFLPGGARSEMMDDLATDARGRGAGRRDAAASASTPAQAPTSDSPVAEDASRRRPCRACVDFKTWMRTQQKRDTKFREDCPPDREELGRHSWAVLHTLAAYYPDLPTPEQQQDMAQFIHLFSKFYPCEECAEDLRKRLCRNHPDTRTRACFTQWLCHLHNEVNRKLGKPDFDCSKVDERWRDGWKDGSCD
# [21] = target: T3, Rac GTPase-activating protein 1 (Homo sapiens, UniProt Q9H0H5); experiment: MgcRacGAP GTPase-activating activity inhibitors, confirmation, biochemical, ADP Hunter fluorescence, primary and confirmatory (AID 624330); assay type: functional
# T3 sequence (Q9H0H5 whole entry): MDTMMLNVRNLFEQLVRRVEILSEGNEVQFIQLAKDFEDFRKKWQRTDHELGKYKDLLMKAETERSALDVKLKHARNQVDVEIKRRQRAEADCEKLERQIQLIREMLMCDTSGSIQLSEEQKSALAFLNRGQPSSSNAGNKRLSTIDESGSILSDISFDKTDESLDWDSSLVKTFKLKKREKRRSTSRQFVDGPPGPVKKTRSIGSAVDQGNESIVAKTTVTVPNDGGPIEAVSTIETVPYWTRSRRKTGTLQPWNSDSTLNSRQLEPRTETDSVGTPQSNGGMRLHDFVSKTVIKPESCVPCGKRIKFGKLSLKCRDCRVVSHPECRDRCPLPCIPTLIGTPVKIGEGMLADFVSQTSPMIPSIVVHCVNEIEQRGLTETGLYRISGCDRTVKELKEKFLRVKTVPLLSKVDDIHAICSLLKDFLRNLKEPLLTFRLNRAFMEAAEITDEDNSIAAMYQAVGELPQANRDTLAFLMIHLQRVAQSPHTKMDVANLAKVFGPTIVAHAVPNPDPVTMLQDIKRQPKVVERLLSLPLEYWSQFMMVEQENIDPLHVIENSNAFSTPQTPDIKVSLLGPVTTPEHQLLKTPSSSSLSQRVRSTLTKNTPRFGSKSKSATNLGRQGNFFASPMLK
# [22] = target: T4, Polyadenylate-binding protein 1 (Homo sapiens, UniProt P11940); experiment: PABP1 MLLE–PAM2 binding inhibitor potency, dose response, biochemical, fluorescence polarization, FITC-PAM2 peptide (AID 602259); assay type: functional; conditions: read-out: IC50_Mean
# T4 sequence (P11940 whole entry): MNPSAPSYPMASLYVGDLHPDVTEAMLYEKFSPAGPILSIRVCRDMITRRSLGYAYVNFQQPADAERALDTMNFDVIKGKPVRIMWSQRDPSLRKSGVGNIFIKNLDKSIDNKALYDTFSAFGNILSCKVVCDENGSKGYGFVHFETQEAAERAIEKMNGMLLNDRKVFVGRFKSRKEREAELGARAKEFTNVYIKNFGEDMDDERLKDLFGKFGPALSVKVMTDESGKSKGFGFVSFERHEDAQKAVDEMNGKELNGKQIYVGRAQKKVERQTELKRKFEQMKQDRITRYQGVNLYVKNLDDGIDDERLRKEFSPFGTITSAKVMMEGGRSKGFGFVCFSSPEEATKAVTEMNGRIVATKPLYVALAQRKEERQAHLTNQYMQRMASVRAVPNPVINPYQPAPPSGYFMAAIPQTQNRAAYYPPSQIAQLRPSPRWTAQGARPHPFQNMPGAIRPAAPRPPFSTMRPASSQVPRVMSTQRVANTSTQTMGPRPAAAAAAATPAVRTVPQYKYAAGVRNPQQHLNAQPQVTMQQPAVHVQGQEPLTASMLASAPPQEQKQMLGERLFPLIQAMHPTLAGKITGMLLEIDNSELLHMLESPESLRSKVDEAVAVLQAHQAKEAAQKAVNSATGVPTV
# [23] = target: T4, Polyadenylate-binding protein 1; experiment: PABP1 MLLE–PAM2 interaction inhibitors, dose response, miRNA deadenylation inhibitor project, biochemical, fluorescence polarization, Cy5-PAM2 peptide, secondary (AID 602260); assay type: functional; conditions: read-out: IC50_Mean
# [24] = control 3'UTR Renilla luciferase suppression, dose response, counter-screen for Shn3 inhibitor project, cell-based, Clone20-Shn3RL, cherry-picked (AID 624133); assay type: functional
# [25] = Luminescence Cell-Based Dose Retest to Confirm Inhibitors of Cancer Stem Cells. [Related pubchem assays (depositor defined):AID2717, AID2721]; assay type: functional; conditions: Homo sapiens
# [26] = system: H9c2; experiment: cells; assay type: functional, cell-based; conditions: Rattus norvegicus, H9c2, Myocardium;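 also: confirmatory concentration-response retest of ultra-high-throughput screening hits for modulation of myocardial damage; cell death induced by hydrogen peroxide oxidative stress; compound pretreatment for 60 min then peroxide exposure for 2 h; potency is for protecting the cells against peroxide damage rather than for killing them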
smiles,measurement,setting,value
Cc1cc(C)cc(NC(=O)c2ccc(Cn3nc(C)c(Cl)c3C)o2)c1,CC50,[1],> 40 µM (active)
same,CC50,[2],23.5 µM (active)
O=C(C[C@@H]1C[C@H]2c3cc(NC(=O)C4CCOCC4)ccc3O[C@H]2[C@H](CO)O1)NCc1ccc(Oc2ccccc2)cc1,AC50,[3],34.3 µM (active)
Cc1cc(NS(=O)(=O)c2ccc(NC(=O)C(F)(F)F)cc2)no1,IC50,[4],> 100 µM (not active)
CCOc1cc(/C=C2/S/C(=N/c3ccccc3)N(Cc3cccnc3)C2=O)ccc1OCC#N,EC50,[5],32.5 µM (active)
same,EC50,[6],26.9 µM (active)
COc1cccc(-c2ccc3c(c2)[C@@H]2[C@@H](CCN2C(=O)NC2CCCCC2)[C@H](CO)N3C)c1,AC50,[3],10.9 µM (active)
NS(=O)(=O)OCCCCCCCOS(N)(=O)=O,GI50,[7],273 µM (inactive)
same,GI50,[8],> 83 µM (inactive)
same,GI50,[9],35.1 µM (inactive)
COc1cccc(N2C(=O)C(Cl)=C(N3CCN(CCO)CC3)C2=O)c1,IC50,[4],> 50 µM (inconclusive)
CC(=C/c1ccccc1)/C=N/Nc1nc(N2CCCCC2)nc(N2CCCCC2)n1,EC50,[5],21.6 µM (active)
same,EC50,[6],24 µM (active)
Fc1cccc(Cc2noc(CN3CCC(c4ccncc4)CC3)n2)c1,IC50,[10],14.5 µM (active)
same,EC50,[11],2.11 µM (active)
same,EC50,[12],> 60 µM (not active)
CCOC(=O)c1cnc2c(C)cc(Cl)cc2c1N1CCN(C)CC1,IC50,[10],11.5 µM (active)
N#C/C(=C\c1ccc(C(=O)O)cc1)c1nc(O)c2c3c(sc2n1)CCCC3,IC50,[13],3.52 µM (active)
CCCC#Cc1ccc([C@@H]2[C@H]3CN(S(=O)(=O)c4ccccc4F)CCCCN3[C@H]2CO)cc1,AC50,[3],22.4 µM (active)
Cc1nn(-c2ccccc2)c(N)c1N=Nc1ccc(Cl)cc1,CC50,[1],> 40 µM (active)
same,EC50,[14],22.8 µM (inconclusive)
same,EC50,[15],5.82 µM (active)
NC(CSC(c1ccccc1)(c1ccccc1)c1ccccc1)C(=O)O (stereo not given),GI50,[7],0.352 µM (active)
same,GI50,[8],5.43 µM (inactive)
same,GI50,[9],0.494 µM (active)
O=C(NN1C(=O)C2C(c3ccccc3)C=CC(c3ccccc3)C2C1=O)c1cccc(Br)c1 (stereo not given),IC50,[16],12.1 µM (active)
same,IC50,[17],9.22 µM (active)
COc1cc(CNCCc2ccc(S(N)(=O)=O)cc2)ccc1OCc1ccc(Cl)cc1,EC50,[5],7.47 µM (active)
same,EC50,[6],9.48 µM (active)
same,EC50,[11],0.43 µM (active)
same,EC50,[12],> 60 µM (not active)
CC(C)(C)C(=O)/C(=C\c1cccc([N+](=O)[O-])c1)n1cncn1,CC50,[1],4.33 µM (active)
CCO[C@H]1OC(C(=O)N2CCN(Cc3ccccc3)CC2)=C[C@@H](c2ccc(C(F)(F)F)cc2)[C@@H]1CCCO,AC50,[3],14.3 µM (active)
O=[N+]([O-])c1cccc(S(=O)(=O)NCc2ccncc2)c1,AC50,[18],3.09 µM (active)
same,AC50,[19],48.4 µM (active)
CN1CCC23c4ccccc4NC1C21CCN(C)C3Nc2ccccc21,GI50,[7],202 µM (inactive)
same,GI50,[8],> 254 µM (inactive)
same,GI50,[9],57.7 µM (inactive)
O=P(NCCCO)(OCc1ccccc1)N(CCCl)CCCl (stereo not given),GI50,[7],> 100 µM (inactive)
same,GI50,[8],> 100 µM (inactive)
same,GI50,[9],> 100 µM (inactive)
O=C(c1ccc(Cl)c(S(=O)(=O)N2CCCC2)c1)N1CCN(c2ccccc2)CC1,IC50,[10],6.61 µM (active)
O=C(C1=C[C@@H](c2ccc(C(F)(F)F)cc2)C[C@@H](OCc2ccc(CO)cc2)O1)N1CCN(Cc2ccccc2)CC1,IC50,[13],1.48 µM (not active)
c1cc2c3c(c1)c1cc4c(cc1c[n+]3CC2)OCO4 [ANHYDROLYCORINIUM CHLORIDE],GI50,[7],1.95 µM (inactive)
same,GI50,[8],22 µM (inactive)
same,GI50,[9],0.515 µM (active)
Cc1nc2ccccc2c2nc3ccccc3n12,CC50,[1],> 40 µM (active)
Cc1ccc(-c2csc3nc(C(C)C)oc(=O)c23)c(C)c1,IC50,[16],1.32 µM (active)
same,IC50,[17],0.761 µM (active)
CCOc1nc(SCCOc2ccc(C)cc2)nc(N(C)C)n1,EC50,[5],56.2 µM (active)
same,EC50,[6],45 µM (active)
Cc1cc(NC(=O)COC(=O)c2cc([N+](=O)[O-])ccc2N2CCOCC2)ccc1Br,IC50,[16],2.82 µM (active)
same,IC50,[17],4.33 µM (active)
CC(=O)Oc1cc2c(cc1OC(C)=O)OCC(c1ccc(C)cc1)C2 (stereo not given),GI50,[7],14 µM (inactive)
same,GI50,[8],3.05 µM (inactive)
same,GI50,[9],2.87 µM (inactive)
O=C(Nc1ccc(Nc2ccccc2)cc1)C1CC1,AC50,[20],0.875 µM (active)
same,IC50,[21],50.8 µM (active)
CN(C)CCN1C(=O)c2cccc3cc([N+](=O)[O-])cc(c23)C1=O [MITONAFIDE],AC50,[18],1.11 µM (active)
same,IC50,[22],43.4 µM (inactive)
same,IC50,[23],> 66 µM (inactive)
same,AC50,[19],2.2 µM (active)
COCCCNCCOCCOc1ccc(Cl)cc1C(C)(C)C,EC50,[5],14.3 µM (active)
same,EC50,[6],14.9 µM (active)
COC(=O)c1ccc(C2c3c(oc4ccc(Cl)cc4c3=O)C(=O)N2CCN2CCOCC2)cc1 (stereo not given),IC50,[16],14.6 µM (active)
same,IC50,[17],11.6 µM (active)
N=C(N)SCc1cccc([N+](=O)[O-])c1,GI50,[7],32.7 µM (inactive)
same,GI50,[8],15.7 µM (inactive)
same,GI50,[9],15.5 µM (inactive)
COc1ccccc1Cc1c(-c2ccco2)nc2c(C)cc(Br)cn12,AC50,[24],5.7 µM (active)
same,AC50,[18],1.9 µM (active)
same,AC50,[19],45.6 µM (active)
CN(C)C1=C(Cl)C(=O)N(c2ccnc(Cl)c2)C1=O,IC50,[4],> 50 µM (inconclusive)
COc1ccc(NC(=O)c2ccccc2N(Cc2ccccc2)S(C)(=O)=O)cc1,IC50,[13],40.6 µM (not active)
CCCn1c(CN2CCN(c3cccc(Cl)c3)CC2)nc2c1c(=O)n(C)c(=O)n2C,EC50,[5],33.1 µM (active)
same,EC50,[6],39.9 µM (active)
same,IC50,[10],14.2 µM (active)
Cn1nc(-c2ccccc2F)c2cc(C(=O)Nc3ccc4c(c3)OCCO4)sc21,AC50,[25],3.48 µM (active)
same,CC50,[1],> 40 µM (active)
same,IC50,[26],> 79 µM (inactive)
same,CC50,[2],26.9 µM (active)
CC(C)(C)OC(=O)NCCc1onc(-c2cccc([N+](=O)[O-])c2)c1C(=O)O,IC50,[16],1.47 µM (active)
same,IC50,[17],1.16 µM (active)
Cc1ccc(N2C(=O)C(Cl)=C(N3CCOCC3)C2=O)cc1,IC50,[4],> 50 µM (inconclusive)
CC(C)n1c(O)c(N=NC(=O)Cc2csc(N3CCOCC3)n2)c2ccccc21,IC50,[10],13.5 µM (active)
